Source: BindingDB's records for doi:10.1016/j.bioorg.2015.09.001 (Universiti Teknologi Mara (Uitm), 2015)

Target: Alpha-glucosidase MAL12 (Saccharomyces cerevisiae (strain ATCC 204508 / S288c), UniProt P53341)
Experiment: α-Glucosidase Inhibitory Activity
Experimental: The 135 µL of 50 mM phosphate saline buffer pH (6.8) was added in the 96-well plate and 20 µL of test sample with 70% DMSO added into the wells. The solution of Enzyme 20 µL was added into the wells, and incubated the plate for 15 min. After incubation pre-read of the plate was taken by the spectra max. Afterward 25 µL of the substrate (pNPG) was added and a reading was taken on spectra max at 400 nm for 30 min. The normal reading is taken and the percent inhibition was calculated.

Chain of Alpha-glucosidase MAL12 (P53341 whole entry): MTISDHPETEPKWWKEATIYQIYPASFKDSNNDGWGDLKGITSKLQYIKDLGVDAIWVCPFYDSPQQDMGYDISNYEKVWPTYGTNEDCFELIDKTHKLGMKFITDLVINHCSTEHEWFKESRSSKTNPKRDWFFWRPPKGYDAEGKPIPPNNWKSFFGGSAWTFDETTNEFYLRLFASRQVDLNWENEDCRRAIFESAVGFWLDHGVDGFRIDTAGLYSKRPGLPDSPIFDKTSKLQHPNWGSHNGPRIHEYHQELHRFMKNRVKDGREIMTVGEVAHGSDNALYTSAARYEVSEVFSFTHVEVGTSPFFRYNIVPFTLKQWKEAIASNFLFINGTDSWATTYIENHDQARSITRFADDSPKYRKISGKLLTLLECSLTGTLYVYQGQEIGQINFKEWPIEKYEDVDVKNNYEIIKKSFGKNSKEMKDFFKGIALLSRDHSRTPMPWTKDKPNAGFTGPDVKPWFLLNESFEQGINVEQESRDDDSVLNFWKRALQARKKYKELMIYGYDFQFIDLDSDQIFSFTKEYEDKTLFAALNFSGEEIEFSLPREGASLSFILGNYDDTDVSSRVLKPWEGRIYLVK

Compared with `O=C(N/N=C/c1cc(O)cc(O)c1)c1cc2ccccc2[nH]1` [(E)-N'-(3,5-dihydroxybenzylidene)-1H-indole-2-carbohydrazide (7)], `O=C(N/N=C/c1cc(O)c(O)c(O)c1)c1cc2ccccc2[nH]1` [(E)-N'-(3,4,5-trihydroxybenzylidene)-1H-indole-2-carbohydrazide (1)] is 98-fold lower in IC50: 226 µM for the first, 2.3 µM for the second. The second is the more potent here.

Compared with `O=C(N/N=C/c1cc(O)ccc1O)c1cc2ccccc2[nH]1` [(E)-N'-(2,5-dihydroxybenzylidene)-1H-indole-2-carbohydrazide (3)], `COc1ccc(O)c(/C=N/NC(=O)c2cc3ccccc3[nH]2)c1` [(E)-N'-(2-hydroxy-5-methoxybenzylidene)-1H-indole-2-carbohydrazide (13)] is 2.9-fold lower in IC50: 144 µM for the first, 49.2 µM for the second.

Compared with `O=C(N/N=C/c1ccc(O)cc1)c1cc2ccccc2[nH]1` [(E)-N'-(4-hydroxybenzylidene)-1H-indole-2-carbohydrazide (9)], `O=C(N/N=C/c1ccc(Cl)cc1)c1cc2ccccc2[nH]1` [(E)-N'-(4-Chlorobenzylidene)-1H-indole-2-carbohydrazide (27)] is 6.4-fold lower in IC50: 206 µM for the first, 32.1 µM for the second. The second is the more potent here.

Compared with `O=C(N/N=C/c1cccc(O)c1O)c1cc2ccccc2[nH]1` [(E)-N'-(2,3-dihydroxybenzylidene)-1H-indole-2-carbohydrazide (6)], `O=C(N/N=C/c1ccccc1O)c1cc2ccccc2[nH]1` [(E)-N'-(2-hydroxybenzylidene)-1H-indole-2-carbohydrazide (10)] is 2-fold lower in IC50: 86.5 µM for the first, 42.6 µM for the second. The second is the more potent here.

First: O=C(N/N=C/c1ccc(O)c(O)c1)c1cc2ccccc2[nH]1 [(E)-N'-(3,4-dihydroxybenzylidene)-1H-indole-2-carbohydrazide (4)]
Second: COc1cc(/C=N/NC(=O)c2cc3ccccc3[nH]2)ccc1O [(E)-N'-(4-hydroxy-3-methoxybenzylidene)-1H-indole-2-carbohydrazide (8)]
The IC50 of the first is 3.8-fold lower: 41 µM for the first, 155 µM for the second. The first is the more potent here.

Compared with `COc1ccc(/C=N/NC(=O)c2cc3ccccc3[nH]2)c(I)c1O` [(E)-N'-(3-hydroxy-2-iodo-4-methoxybenzylidene)-1H-indole-2-carbohydrazide (14)], `COc1ccc(/C=N/NC(=O)c2cc3ccccc3[nH]2)cc1O` [(E)-N'-(3-hydroxy-4-methoxybenzylidene)-1H-indole-2-carbohydrazide (11)] is 3.5-fold higher in IC50: 54.6 µM for the first, 191 µM for the second.

Going from `O=C(N/N=C/c1ccc(F)c(Br)c1)c1cc2ccccc2[nH]1` [(E)-N'-(3-Bromo-4-fluorobenzylidene)-1H-indole-2-carbohydrazide (19)] to `O=C(N/N=C/c1c(O)cc(O)cc1O)c1cc2ccccc2[nH]1` [(E)-N'-(2,4,6-trihydroxybenzylidene)-1H-indole-2-carbohydrazide (2)], the IC50 rises from 26.6 µM to 49.2 µM (1.8-fold). The first is the more potent here.
